The results in this text go back to patent publication US9365574B2, “Soluble guanylate cyclase activators” (Merck Sharp & Dohme Corp., priority 2010, dated 2016).

In this assay the test system is Spontaneously hypertensive rats (SHR). As to the kind of experiment: Acute Efficacy in Spontaneously Hypertensive Rats (SHR), telemetry blood pressure. In kind it is in vivo, rat. The text has this: Acute Efficacy in Spontaneously Hypertensive Rats (SHR)
Spontaneously hypertensive rats (SHR, male, Charles River) were implanted with DSI TA11PA-C40 telemetry device (Data Sciences, Inc., St. Paul, Minn.) under isoflurane or ketamine/metomidine anesthesia. The telemetry unit catheter was inserted into the descending aorta via the femoral artery and the telemetry device was implanted subcutaneously in the left flank area. Animals were allowed to recover from surgery for 14 days before the start of any studies. Blood pressure, heart rate, and activity signals from conscious, freely moving rats were recorded continuously for 30 seconds every 10 minutes. On the day prior to administration of compound, a single oral dose of vehicle (10% transcutol/20% Cremophor/70% water) was administered to all animals to establish baseline control data. The blood pressure lowering efficacy of compound (PO) or vehicle was evaluated following a single oral gavage. Data were collected as hourly averages, and changes in blood pressure were calculated by subtracting control baseline data on an hourly basis. Animals were maintained on normal diet with a 12 hour light-dark cycle.
Maximum peak decreases of systolic blood pressure (SBP) in SHR at a particular P.O. dose (mpk milligrams per kilogram) for the following representative compounds are provided.

`Cc1nc(C2(C)C(=O)Nc3nc(-c4nc(CCCC(F)(F)F)n5cc(Cl)ccc45)nc(N)c32)no1` (stereo not shown) [Example 249, 4-amino-2-[6-chloro-3-(4,4,4-trifluorobutyl)imidazo[1,5-a]pyridin-1-yl]-5-methyl-5-(5-methyl-1,2,4-oxadiazol-3-yl)-5,7-dihydro-6H-pyrrolo[2,3-d]pyrimidin-6-one]: the “Maximum peak decrease of systolic blood pressure (SBP) in SHR, Category” value (“Maximum peak decrease” for short) (single oral dose 1 mpk P.O.) was “A (Category A=SBP in SHRs<25 mmHg)”.

As to `CNc1nc(-c2nn(CCC(F)(F)C(F)(F)F)c3cc(Cl)ccc23)nc2c1C(C)(c1ccccc1)C(=O)N2` (stereo not shown) [Example 188, 2-[6-Chloro-1-(3,3,4,4,4-Pentafluorobutyl)-1H-Indazol-3-yl]-5-Methyl-4-(Methylamino)-5-Phenyl-5,7-Dihydro-6H-Pyrrolo[2,3-D]Pyrimidin-6-One], for the setting “single oral dose 0.3 mpk P.O.”, the “Maximum peak decrease” value is reported as “B (Category B=SBP in SHRs 25-40 mmHg)”.

On to `CC1(C(N)=O)C(=O)Nc2nc(-c3nc(CCC(F)(F)C(F)(F)F)c4ccccn34)nc(N)c21` (stereo not shown) [Example 270, 4-amino-5-methyl-6-oxo-2-[1-(3,3,4,4,4-pentafluorobutyl)imidazo[1,5-a]pyridin-3-yl]-6,7-dihydro-5H-pyrrolo[2,3-d]pyrimidine-5-carboxamide], for which the “Maximum peak decrease” value (single oral dose 0.3 mpk P.O.) was “A (Category A=SBP in SHRs<25 mmHg)”.

`CC1(C(N)=O)C(=O)Nc2nc(-c3nn(CCC(F)(F)C(F)(F)F)c4nc(Cl)ccc34)nc(N)c21` (stereo not shown) [Example 214, 4-amino-2-[6-chloro-1-(3,3,4,4,4-pentafluorobutyl)-1H-pyrazolo[3,4-b]pyridin-3-yl]-5-methyl-6-oxo-6,7-dihydro-5H-pyrrolo[2,3-d]pyrimidine-5-carboxamide]: for the setting “single oral dose 0.1 mpk P.O.”, the “Maximum peak decrease” value was “A (Category A=SBP in SHRs<25 mmHg)”.

As for `CN(C)C(=O)C1(C)C(=O)Nc2nc(-n3nc(CCC(F)(F)C(F)(F)F)c4cc(Cl)ccc43)nc(N)c21` (stereo not shown) [Example 265, 4-amino-2-[5-chloro-3-(3,3,4,4,4-pentafluorobutyl)-1H-indazol-1-yl]-N,N,5-trimethyl-6-oxo-6,7-dihydro-5H-pyrrolo[2,3-d]pyrimidine-5-carboxamide], the “Maximum peak decrease” value (single oral dose 1 mpk P.O.) is “C (Category C=SBP in SHRs>40 mmHg)”.

Consider `CC1(C(=O)NC2CC2)C(=O)Nc2nc(-c3nn(CCC(F)(F)C(F)(F)F)c4cc(Cl)ccc34)nc(N)c21` (single isomer, unassigned) [Example 160, 4-Amino-2-[6-Chloro-1-(3,3,4,4,4-Pentafluorobutyl)-1H-Indazol-3-yl]-N-Cyclopropyl-5-Methyl-6-Oxo-6,7-Dihydro-5H-Pyrrolo[2,3-D]Pyrimidine-5-Carboxamide], for which, for the setting “dose 0.3 mpk”, the “Maximum SBP reduction” value is reported as 77 ± 10 mmHg. Besides, the “Maximum peak decrease” value (single oral dose 0.3 mpk P.O.) was “C (Category C=SBP in SHRs>40 mmHg)”.

On to `CC1(c2nnc(C3CC3)o2)C(=O)Nc2nc(-c3nc(CCC(F)(F)C(F)(F)F)n4ncccc34)nc(N)c21` (stereo not shown) [Example 255, 4-amino-5-(5-cyclopropyl-1,3,4-oxadiazol-2-yl)-5-methyl-2-[7-(3,3,4,4,4-pentafluorobutyl)imidazo[1,5-b]pyridazin-5-yl]-5,7-dihydro-6H-pyrrolo[2,3-d]pyrimidin-6-one], for which the “Maximum peak decrease” value (single oral dose 0.3 mpk P.O.) is “B (Category B=SBP in SHRs 25-40 mmHg)”.

As to `CC1(C(=O)NC2CC2)C(=O)Nc2nc(-c3nc(CCC(F)(F)F)n4ncccc34)nc(N)c21` (stereo not shown) [Example 256, 4-amino-H-cyclopropyl-5-methyl-6-oxo-2-[7-(3,3,3-trifluoropropyl)imidazo[1,5-b]pyridazin-5-yl]-6,7-dihydro-5H-pyrrolo[2,3-d]pyrimidine-5-carboxamide], where the note is “single oral dose 0.3 mpk P.O.”, the “Maximum peak decrease” value was “B (Category B=SBP in SHRs 25-40 mmHg)”.

`CC1(c2ccccn2)C(=O)Nc2nc(-c3nn(CCC(F)(F)F)c4ncccc34)nc(N)c21` (stereo not shown) [Example 232, 4-amino-5-methyl-5-pyridin-2-yl-2-[1-(3,3,3-trifluoropropyl)-1H-pyrazolo[3,4-b]pyridin-3-yl]-5,7-dihydro-6H-pyrrolo[2,3-d]pyrimidin-6-one]: the “Maximum peak decrease” value (single oral dose 0.3 mpk P.O.) is listed as “B (Category B=SBP in SHRs 25-40 mmHg)”.

`Nc1nc(-c2nn(CCCC(F)(F)F)c3ncccc23)nc2c1C(C(=O)NC1CC1)(C1CC1)C(=O)N2` (stereo not shown) [Example 246, 4-amino-N,5-dicyclopropyl-6-oxo-2-[1-(4,4,4-trifluorobutyl)-1H-pyrazolo[3,4-b]pyridin-3-yl]-6,7-dihydro-5H-pyrrolo[2,3-d]pyrimidine-5-carboxamide]: the “Maximum peak decrease” value (single oral dose 0.3 mpk P.O.) is listed as “C (Category C=SBP in SHRs>40 mmHg)”.

On to `CC1(N)C(=O)Nc2nc(-c3nn(CCC(F)(F)C(F)(F)F)c4cc(Cl)ccc34)nc(N)c21` (stereo not shown) [Example 201, 4,5-diamino-2-[6-chloro-1-(3,3,4,4,4-pentafluorobutyl)-1H-indazol-3-yl]-5-methyl-5,7-dihydro-6H-pyrrolo[2,3-d]pyrimidin-6-one], for which the “Maximum peak decrease” value (single oral dose 0.3 mpk P.O.) was “A (Category A=SBP in SHRs<25 mmHg)”.

Consider `Cc1nc(C2(C)C(=O)Nc3nc(-c4nn(CCC(F)(F)C(F)(F)F)c5cc(Cl)ccc45)nc(N)c32)sc1C` (stereo not shown) [Example 167, 4-Amino-2-[6-Chloro-1-(3,3,4,4,4-Pentafluorobutyl)-1H-Indazol-3-yl]-5-(4,5-Dimethyl-1,3-Thiazol-2-yl)-5-Methyl-5,7-Dihydro-6H-Pyrrolo[2,3-D]Pyrimidin-6-One], for which, under “single oral dose 0.3 mpk P.O.”, the “Maximum peak decrease” value was “B (Category B=SBP in SHRs 25-40 mmHg)”.

Consider `CC1(NCC2CC2)C(=O)Nc2nc(-c3nn(CCC(F)(F)C(F)(F)F)c4cc(Cl)ccc34)nc(N)c21` (stereo not shown) [Example 202, 4-amino-2-[6-chloro-1-(3,3,4,4,4-pentafluorobutyl)-1H-indazol-3-yl)-5-[(cyclopropylmethyl)amino]-5-methyl-5,7-dihydro-6H-pyrrolo[2,3-d]pyrimidin-6-one], for which the “Maximum peak decrease” value (single oral dose 0.3 mpk P.O.) is recorded as “C (Category C=SBP in SHRs>40 mmHg)”.

For the compound `CC1(C(=O)NC2CC2)C(=O)Nc2nc(-n3nc(CCC(F)(F)C(F)(F)F)c4ncccc43)nc(N)c21` (stereo not shown) [Example 266, 4-amino-N-cyclopropyl-5-methyl-6-oxo-2-[3-(3,3,4,4,4-pentafluorobutyl)-1H-pyrazolo[4,3-b]pyridin-1-yl]-6,7-dihydro-5H-pyrrolo[2,3-d]pyrimidine-5-carboxamide], for the setting “single oral dose 0.3 mpk P.O.”, the “Maximum peak decrease” value is “C (Category C=SBP in SHRs>40 mmHg)”.

Turning to `CC1(C(=O)Nc2cccnc2)C(=O)Nc2nc(-c3nn(CCOC(F)(F)F)c4ncccc34)nc(N)c21` (stereo not shown) [Example 233, 4-amino-5-methyl-6-oxo-N-pyridin-3-yl-2-{1-[2-(trifluoromethoxy)ethyl]-1H-pyrazolo[3,4-b]pyridin-3-yl}-6,7-dihydro-5H-pyrrolo[2,3-d]pyrimidine-5-carboxamide], the “Maximum peak decrease” value (single oral dose 0.3 mpk P.O.) is “B (Category B=SBP in SHRs 25-40 mmHg)”.

In the case of `CNc1nc(-c2nn(CCC(F)(F)C(F)(F)F)c3ncccc23)nc2c1C(C)(c1nnc(C3CC3)o1)C(=O)N2` (stereo not shown) [Example 261, 5-(5-cyclopropyl-1,3,4-oxadiazol-2-yl)-5-methyl-4-(methylamino)-2-[1-(3,3,4,4,4-pentafluorobutyl)-1H-pyrazolo[3,4-b]pyridin-3-yl]-5,7-dihydro-6H-pyrrolo[2,3-d]pyrimidin-6-one], the “Maximum peak decrease” value (single oral dose 0.3 mpk P.O.) is recorded as “C (Category C=SBP in SHRs>40 mmHg)”.

`CC1(C(N)=S)C(=O)Nc2nc(-c3nn(CCC(F)(F)C(F)(F)F)c4ncccc34)nc(N)c21` (stereo not shown) [Example 205, 4-amino-5-methyl-6-oxo-2-[1-(3,3,4,4,4-pentafluorobutyl)-1H-pyrazolo[3,4-6]pyridin-3-yl]-6,7-dihydro-5H-pyrrolo[2,3-d]pyrimidine-5-carbothioamide]: the “Maximum peak decrease” value (single oral dose 1 mpk P.O.) is on record as “C (Category C=SBP in SHRs>40 mmHg)”.

`Cc1ccc2c(-c3nc(N)c4c(n3)NC(=O)C4(C)C(=O)NC3CC3)nn(CCC(F)(F)C(F)(F)F)c2n1` (stereo not shown) [Example 179, 4-Amino-N-Cyclopropyl-5-Methyl-2-(6-Methyl-1-(3,3,4,4,4-Pentafluorobutyl)-1H-Pyrazolo[3,4-B]Pyridin-3-yl)-6-Oxo-6,7-Dihydro-5H-Pyrrolo[2,3-D]Pyrimidine-5-Carboxamide]: the “Maximum peak decrease” value (single oral dose 0.1 mpk P.O.) is “B (Category B=SBP in SHRs 25-40 mmHg)”.

As to `CC1(C(=O)NC2CC2)C(=O)Nc2nc(-c3nn(CCC(F)(F)C(F)(F)F)c4nc(Cl)ccc34)nc(N)c21` (stereo not shown) [Example 176, 4-Amino-2-(6-Chloro-1-(3,3,4,4,4-Pentafluorobutyl)-1H-Pyrazolo[3,4-B]Pyridin-3-yl)-N-Cyclopropyl-5-Methyl-6-Oxo-6,7-Dihydro-5H-Pyrrolo[2,3-D]Pyrimidine-5-Carboxamide], the “Maximum peak decrease” value (single oral dose 0.1 mpk P.O.) was “C (Category C=SBP in SHRs>40 mmHg)”.

As to `CNC(=O)C1(C)C(=O)Nc2nc(-c3nn(CCC(F)(F)C(F)(F)F)c4cc(Cl)ccc34)nc(NC)c21` (stereo not shown) [Example 258, 2-[6-chloro-1-(3,3,4,4,4-pentafluorobutyl)-1H-indazol-3-yl]-N,5-dimethyl-4-(methylamino)-6-oxo-6,7-dihydro-5H-pyrrolo[2,3-d]pyrimidine-5-carboxamide], where the note is “single oral dose 0.3 mpk P.O.”, the “Maximum peak decrease” value is listed as “A (Category A=SBP in SHRs<25 mmHg)”.

As for `CC1(C(=O)Nc2cccnc2)C(=O)Nc2nc(-c3nn(CCCC(F)(F)F)c4ncccc34)nc(N)c21` (stereo not shown) [Example 227], the “Maximum peak decrease” value (single oral dose 0.3 mpk P.O.) is given as “B (Category B=SBP in SHRs 25-40 mmHg)”.
